Experimental data taken from PubChem BioAssay AID2060495 (Molecular Pharmacology Branch, DTP, NCI, 2025).

Test system: 521955-158-R2-J5-PDC complex spheroid viability
Experiment: Anticancer human tumor 521955-158-R2-J5-PDC patient-derived pancreatic carcinoma cell line growth inhibition [GQUAD]
Settings: for IC50: curve of first compound; for viability, T/C: stronger effect = lower value
Text: DNA G-quadruplex Stabilizer Agents in Combinations in Complex Spheroids
A high-throughput screen of multi-cell type tumor spheroids was designed to identify active combinations of DNA G-quadruplex stabilizer agents and targeted small molecules. Complex spheroids include a stromal component modeled by human endothelial cells (HUVEC) and fibroblasts modeled by human mesenchymal stem cells (MSCs). The concentration ranges selected for each drug and investigational agent were based upon clinically achievable concentrations if the clinical Cmax of the agent was known.
Compounds. The drugs and investigational agents: pidnarulex (CX-5461; NSC782164), APTO-253 (NSC789042), BRACO-19 (NSC847499), peposertib (NSC802822), ceralasertib (NSC780249), elimusertib (NSC800525), camonsertib (NSC841442), AZD-1390 (NSC803789), olaparib (NSC753686), talazoparib (NSC767125), ART-558 (NSC835418), sotorasib (NSC818433), MRTX-1133 (NSC836407), SN-38 (NSC673596), topotecan (NSC609699), etoposide (NSC141540), doxorubicin (NSC123127), gemcitabine (NSC613327), 5-fluorouracil (NSC19893), paclitaxel (NSC125973), vemurafenib (NSC761431), panobinostat (NSC761190), R-306465 (JNJ-16241199; NSC773264), adavosertib (NSC754352), TP-3654 (NSC805149), carboplatin (NSC241240), KSQ-4279 (NSC840948), and staurosporine (NSC755774) were obtained from the National Cancer Institute (NCI) Developmental Therapeutics Program Chemical Repository (34). The FDA-approved anticancer drug set is available from the NCI Developmental Therapeutics Program. […] The stock solutions were prepared in dimethyl sulfoxide (DMSO, Sigma-Aldrich, St. Louis, MO, cat. D2650) at 800-fold the tested concentration and stored at -70 degrees C prior to their use. All drugs and investigational agents were tested over a range starting from a high concentration at or near the clinical Cmax and decreasing in half-log increments. If the clinical Cmax for an agent had not been determined, the highest concentration tested was 10 microM.
2.3 Cell Culture. All cells were maintained in an incubator at 37 degrees C and 5% CO2 with 95% humidity. The PDC lines were cultured according to standard operating procedures established by the NCI PDMR. All PDCs were thawed and cultured in Matrigel-coated flasks prepared with a working solution of 1X Ham's F-12 nutrient mix, without supplementation (Invitrogen, cat. 11765054), 100 U/mL penicillin-streptomycin (Invitrogen, cat. 15140122), and 2.5% Matrigel (Corning Inc., cat. 354248) for the first three passages. The 857933-349-R-J2-PDC line was cultured in 6C/Colon 1B media, which includes advanced DMEM/F-12 (Thermo Fisher Scientific, cat. 12634028), 10 mM HEPES (Thermo Fisher Scientific, cat. 15630080), 1X GlutaMAX supplement (Thermo Fisher Scientific, cat. 35050061), 0.1 mg/mL primocin (InvivoGen, cat. ant-pm-2), 10% defined fetal bovine serum, heat inactivated (HyClone Laboratories Inc., cat. SH30070.03HI), 50% L-WRN conditioned media (ATCC, cat. CRL-3276), 1.25 mM N-Acetyl-L-cysteine (Sigma-Aldrich, cat. A9165), 10 mM nicotinamide (Sigma-Aldrich, cat. N0636), 1X B-27 supplement (Thermo Fisher Scientific, cat. 17504044), 1X N-2 supplement (Thermo Fisher Scientific, cat. 17502048), 10 microM Y-27632 dihydrochloride (Tocris Bioscience, cat. 1254), and 50 ng/mL human EGF recombinant protein (Thermo Fisher Scientific, cat. PHG0311). The 485176-168-R4-J1-PDC line was cultured in Panc media, which includes all 6C/Colon 1B media components plus 100 ng/mL human FGF-10 (Thermo Fisher Scientific, cat. 100-26), 500 nM SB-431542 (Selleckchem, cat. S1067), and gastrin (Tocris, cat. 3006).
[…]

[1] = second compound 0.0316 µM, first compound 0.0316 µM
[2] = second compound 0.0316 µM, first compound 0.316 µM
[3] = second compound 0.1 µM, first compound 0.0316 µM
[4] = second compound 0.1 µM, first compound 0.316 µM
[5] = second compound 0.316 µM, first compound 0.0316 µM
[6] = second compound 0.316 µM, first compound 0.316 µM
[7] = second compound 1 µM, first compound 0.0316 µM
[8] = second compound 1 µM, first compound 0.316 µM
[9] = second compound 3.16 µM, first compound 0.0316 µM
[10] = second compound 3.16 µM, first compound 0.316 µM
[11] = second compound 10 µM, first compound 0.0316 µM
[12] = second compound 10 µM, first compound 0.316 µM
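Further: spheroids exposed to agents for one week before reading.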
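Wherever viability, T/C is given: 100% = DMSO vehicle control viability.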

Work on `Cc1[nH]c2ccccc2c1CCNCc1ccc(/C=C/C(=O)NO)cc1` + CN(C)c1ccc(Nc2c3ccc(NC(=O)CCN4CCCC4)cc3nc3cc(NC(=O)CCN4CCCC4)ccc23)cc1 yielded an IC50 (second compound 0.0316 µM) of 168 nM, an IC50 (second compound 0.1 µM) of 117 nM and an IC50 (second compound 0.316 µM) of 156 nM. The IC50 (second compound 1 µM) was 180 nM, the IC50 (second compound 3.16 µM) was 119 nM and the IC50 (second compound 10 µM) was 67.6 nM. For the same compound, the viability, T/C (second compound 0.0316 µM, first compound 0.000999 µM) was 132%, the viability, T/C (second compound 0.0316 µM, first compound 0.00316 µM) was 110% and the viability, T/C (second compound 0.0316 µM, first compound 0.00999 µM) was 133%. For the same compound, the viability, T/C [1] was 109%, the viability, T/C (second compound 0.0316 µM, first compound 0.0999 µM) was 72.3% and the viability, T/C [2] was 23.4%. It also gave a viability, T/C (second compound 0.1 µM, first compound 0.000999 µM) of 113%, a viability, T/C (second compound 0.1 µM, first compound 0.00316 µM) of 132% and a viability, T/C (second compound 0.1 µM, first compound 0.00999 µM) of 128%. For the same compound, the viability, T/C [3] was 121%, the viability, T/C (second compound 0.1 µM, first compound 0.0999 µM) was 54.8% and the viability, T/C [4] was 19.7%. For the same compound, the viability, T/C (second compound 0.316 µM, first compound 0.000999 µM) was 105%, the viability, T/C (second compound 0.316 µM, first compound 0.00316 µM) was 125% and the viability, T/C (second compound 0.316 µM, first compound 0.00999 µM) was 123%. It also gave a viability, T/C [5] of 90.8%, a viability, T/C (second compound 0.316 µM, first compound 0.0999 µM) of 68.7% and a viability, T/C [6] of 24.4%. For the same compound, the viability, T/C (second compound 1 µM, first compound 0.000999 µM) was 107%, the viability, T/C (second compound 1 µM, first compound 0.00316 µM) was 114% and the viability, T/C (second compound 1 µM, first compound 0.00999 µM) was 134%. For the same compound, the viability, T/C [7] was 114%, the viability, T/C (second compound 1 µM, first compound 0.0999 µM) was 82.6% and the viability, T/C [8] was 19%. For the same compound, the viability, T/C (second compound 3.16 µM, first compound 0.000999 µM) was 91.7%, the viability, T/C (second compound 3.16 µM, first compound 0.00316 µM) was 116% and the viability, T/C (second compound 3.16 µM, first compound 0.00999 µM) was 119%. For the same compound, the viability, T/C [9] was 97%, the viability, T/C (second compound 3.16 µM, first compound 0.0999 µM) was 56.9% and the viability, T/C [10] was 13.2%. The viability, T/C (second compound 10 µM, first compound 0.000999 µM) was 70.7%, the viability, T/C (second compound 10 µM, first compound 0.00316 µM) was 103% and the viability, T/C (second compound 10 µM, first compound 0.00999 µM) was 79.3%. For the same compound, the viability, T/C [11] was 82.6%, the viability, T/C (second compound 10 µM, first compound 0.0999 µM) was 33.3% and the viability, T/C [12] was 3.21%.

Compound `CC1COCCN1c1cc(-c2ccnn2C)c2ccnc(-c3ccn[nH]3)c2n1` (centres undefined) + Cc1[nH]c2ccc(F)cc2c1-c1nc2c3cccnc3c3ncccc3c2[nH]1 has an IC50 (second compound 0.0316 µM) of 55.1 nM, an IC50 (second compound 0.1 µM) of 52.6 nM and an IC50 (second compound 0.316 µM) of 56.8 nM. It also gave an IC50 (second compound 1 µM) of 59 nM, an IC50 (second compound 3.16 µM) of 58.4 nM and an IC50 (second compound 10 µM) of 53.5 nM. For the same compound, the viability, T/C [1] was 81%, the viability, T/C (second compound 0.0316 µM, first compound 0.1 µM) was 16.8% and the viability, T/C [2] was 10.3%. It also gave a viability, T/C (second compound 0.0316 µM, first compound 1 µM) of 13.1%, a viability, T/C (second compound 0.0316 µM, first compound 3.16 µM) of 18.4% and a viability, T/C (second compound 0.0316 µM, first compound 10 µM) of 18.2%. The viability, T/C [3] was 73.7%, the viability, T/C (second compound 0.1 µM, first compound 0.1 µM) was 20.6% and the viability, T/C [4] was 8.98%. The viability, T/C (second compound 0.1 µM, first compound 1 µM) was 12.4%, the viability, T/C (second compound 0.1 µM, first compound 3.16 µM) was 18.1% and the viability, T/C (second compound 0.1 µM, first compound 10 µM) was 18.8%. The viability, T/C [5] was 84.4%, the viability, T/C (second compound 0.316 µM, first compound 0.1 µM) was 16.7% and the viability, T/C [6] was 13.3%. The viability, T/C (second compound 0.316 µM, first compound 1 µM) was 12.7%, the viability, T/C (second compound 0.316 µM, first compound 3.16 µM) was 18.5% and the viability, T/C (second compound 0.316 µM, first compound 10 µM) was 19.8%. For the same compound, the viability, T/C [7] was 90.1%, the viability, T/C (second compound 1 µM, first compound 0.1 µM) was 16.1% and the viability, T/C [8] was 9.88%. The viability, T/C (second compound 1 µM, first compound 1 µM) was 11.1%, the viability, T/C (second compound 1 µM, first compound 3.16 µM) was 19.8% and the viability, T/C (second compound 1 µM, first compound 10 µM) was 21.6%. The viability, T/C [9] was 88.1%, the viability, T/C (second compound 3.16 µM, first compound 0.1 µM) was 15.8% and the viability, T/C [10] was 9.58%. The viability, T/C (second compound 3.16 µM, first compound 1 µM) was 11.2%, the viability, T/C (second compound 3.16 µM, first compound 3.16 µM) was 21.6% and the viability, T/C (second compound 3.16 µM, first compound 10 µM) was 25%. For the same compound, the viability, T/C [11] was 77.7%, the viability, T/C (second compound 10 µM, first compound 0.1 µM) was 16% and the viability, T/C [12] was 10.9%. For the same compound, the viability, T/C (second compound 10 µM, first compound 1 µM) was 15.9%, the viability, T/C (second compound 10 µM, first compound 3.16 µM) was 19.3% and the viability, T/C (second compound 10 µM, first compound 10 µM) was 24%.
